Measurements: US9260376B2, “Compounds for use in the treatment of immune related inflammatory disease” (VENANTIUS LIMITED, priority 2011, dated 2016)

System: IL2 release from Jurkat cells (T cell line Jurkat 6.1)
Test: Effect of compounds on IL-2 secretion in T lymphocytes (anti-CD3/anti-CD28 stimulated, ELISA)
Type: cell-based
Settings: control inhibitors; plates 2 and 3
Experimental: The T cell line Jurkat 6.1 (ATCC) was used. Cells were pre-treated for 30 min with 1 μM or 10 μM of the respective compound and then stimulated with plate-bound anti-CD3 (BD Pharmingen) and anti-CD28 (AnCell). DMSO was used as vehicle control. […] After 24 hs the supernatant was collected and IL-2 secretion was measured by ELISA.
Compounds were prepared by dissolution in DMSO to yield final concentrations of 1 and 10 μg/ml

CN[C@@H]1C[C@H]2O[C@@](C)([C@@H]1OC)n1c3ccccc3c3c4c(c5c6ccccc6n2c5c31)C(=O)NC4 [Stauros]
IL-2 pg/ml: 117.75 pg/mL
